27 compounds from patent publication US10035760B2, “Inhibitors of human immunodeficiency virus replication” (priority 2013, dated 2018) can be followed below.

Like-named read-outs stand apart in the source and are kept apart here.

For this test, the system named is recombinant NL4-3 virus (Renilla luciferase) in MT-2 cells. The experiment in a line: HIV cell culture assay (antiviral activity, luciferase readout in infected MT-2 cells). Type of test: cell-based. The procedure:
HIV cell culture assay—MT-2 cells, 293T cells and the proviral DNA clone of NL4-3 virus were obtained from the NIH AIDS Research and Reference Reagent Program. MT-2 cells were propagated in RPMI 1640 media supplemented with 10% heat inactivated fetal bovine serum (FBS), 100 ug/ml penicillin G and up to 100 units/ml streptomycin. The 293T cells were propagated in DMEM media supplemented with 10% heat inactivated FBS, 100 ug/ml penicillin G and 100 ug/ml streptomycin. A recombinant NL4-3 proviral clone, in which a section of the nef gene was replaced with the Renilla luciferase gene, was used to make the reference virus used in these studies. The recombinant virus was prepared through transfection of the recombinant NL4-3 proviral clone into 293T cells using Transit-293 Transfection Reagent from Mirus Bio LLC (Madison, Wis.). Supernatent was harvested after 2-3 days after transfection, and the amount of virus present was titered in MT-2 cells using luciferase enzyme activity as a marker. Luciferase activity was quantitated using the EnduRen Live Cell Substrate from Promega (Madison, Wis.). Antiviral activities of compounds toward the recombinant virus were quantified by measuring luciferase activity in MT-2 cells infected for 4-5 days with the recombinant virus in the presence of serial dilutions of the compound.
The 50% effective concentration (EC50) was calculated by using the exponential form of the median effect equation where (Fa)=1/[1+(ED50/drug conc.)^m](Johnson V A, Byington R T. Infectivity Assay. In Techniques in HIV Research. ed. Aldovini A, Walker B D. 71-76. New York: Stockton Press. 1990).

The mark [1] stands for this setting: Renilla, NL43, read-out: Activity, antiviral activity class, recombinant NL4-3 Renilla luciferase virus in MT-2 cells.
[2] abbreviates: Renilla, NL43, recombinant NL4-3 Renilla luciferase virus in MT-2 cells.

In the case of `CN(C(=O)[C@H](Cc1ccccc1)NC(=O)NS(=O)(=O)c1ccccc1Br)c1ccc2c(c1)OCO2` [Example 29, (S)—N-(benzo[d][1,3]dioxol-5-yl)-2-(3-((2-bromophenyl)sulfonyl)ureido)-N-methyl-3-phenylpropanamide], the EC50 under setting [1] was below 100 nM.
Still for that read-out and setting: the figure for `COc1ccc(OC)c(S(=O)(=O)NC(=O)N[C@@H](Cc2ccccc2)C(=O)N(C)c2ccc3c(c2)OCO3)c1` [Example 30, (S)—N-(benzo[d][1,3]dioxol-5-yl)-2-(3-((2,5-dimethoxyphenyl)sulfonyl)ureido)-N-methyl-3-phenylpropanamide] is below 100 nM.
Still for that read-out and setting: then `CN(C(=O)[C@H](Cc1ccccc1)NC(=O)NS(=O)(=O)c1cccs1)c1ccc2c(c1)OCO2` [Example 31, (S)—N-(benzo[d][1,3]dioxol-5-yl)-N-methyl-3-phenyl-2-(3-(thiophen-2-ylsulfonyl)ureido)propanamide], with 100 to 1000 nM.
As to `CN(C(=O)[C@H](Cc1ccccc1)NC(=O)NS(=O)(=O)c1cc(Cl)sc1Cl)c1ccc2c(c1)OCO2` [Example 32, (S)—N-(benzo[d][1,3]dioxol-5-yl)-2-(3-((2,5-dichlorothiophen-3-yl)sulfonyl)ureido)-N-methyl-3-phenylpropanamide], the EC50 under setting [1] is below 100 nM and the EC50 under setting [2] worked out at 70 nM.
The like results for `Cc1nn(C)c(Cl)c1S(=O)(=O)NC(=O)N[C@@H](Cc1ccccc1)C(=O)N(C)c1ccc2c(c1)OCO2` [Example 33, (S)—N-(benzo[d][1,3]dioxol-5-yl)-2-(3-((5-chloro-1,3-dimethyl-1H-pyrazol-4-yl)sulfonyl)ureido)-N-methyl-3-phenylpropanamide] were, in that order, 100 to 1000 nM and 210 nM.
`CN(C(=O)[C@H](Cc1ccccc1)NC(=O)NS(=O)(=O)c1ccccc1F)c1ccc2c(c1)OC(F)(F)O2` [Example 34, (S)—N-(2,2-difluorobenzo[d][1,3]dioxol-5-yl)-2-(3-((2-fluorophenyl)sulfonyl)ureido)-N-methyl-3-phenylpropanamide]: the EC50 under setting [1] was in the range of 100 to 1000 nM.
For `CN(C(=O)[C@H](Cc1cc(F)cc(F)c1)NC(=O)NS(=O)(=O)c1ccccc1F)c1ccc2c(c1)OC(F)(F)O2` [Example 35, (S)—N-(2,2-difluorobenzo[d][1,3]dioxol-5-yl)-3-(3,5-difluorophenyl)-2-(3-((2-fluorophenyl)sulfonyl)ureido)-N-methylpropanamide], the EC50 under setting [1] fell in the range of 100 to 1000 nM.
For `CN(C(=O)[C@H](Cc1ccccc1)NC(=O)NS(=O)(=O)c1ccccc1)c1ccc2c(c1)OC(F)(F)O2` [Example 36, (S)—N-(2,2-difluorobenzo[d][1,3]dioxol-5-yl)-N-methyl-3-phenyl-2-(3-(phenylsulfonyl)ureido)propanamide], the EC50 under setting [1] lay within 1000 to 10000 nM.
Same read-out and setting: the figure for `Cc1ccccc1S(=O)(=O)NC(=O)N[C@@H](Cc1ccccc1)C(=O)N(C)c1ccc2c(c1)OC(F)(F)O2` [Example 37, (S)—N-(2,2-difluorobenzo[d][1,3]dioxol-5-yl)-N-methyl-3-phenyl-2-(3-(o-tolylsulfonyl)ureido)propanamide] is 100 to 1000 nM.
As to `CN(C(=O)[C@H](Cc1ccccc1)NC(=O)NS(=O)(=O)c1ccccc1Cl)c1ccc2c(c1)OC(F)(F)O2` [Example 38, (S)-2-(3-((2-chlorophenyl)sulfonyl)ureido)-N-(2,2-difluorobenzo[d][1,3]dioxol-5-yl)-N-methyl-3-phenylpropanamide], the EC50 is 100 to 1000 nM under setting [1] and 310 nM under setting [2].
`CN(C(=O)[C@H](Cc1cc(F)cc(F)c1)NC(=O)NS(=O)(=O)c1ccccc1Cl)c1ccc2c(c1)OC(F)(F)O2` [Example 39, (S)-2-(3-((2-chlorophenyl)sulfonyl)ureido)-N-(2,2-difluorobenzo[d][1,3]dioxol-5-yl)-3-(3,5-difluorophenyl)-N-methylpropanamide]: the EC50 under setting [1] lay within 100 to 1000 nM.
Consider `Cc1ccccc1S(=O)(=O)NC(=O)N[C@@H](Cc1cc(F)cc(F)c1)C(=O)N(C)c1ccc2c(c1)OC(F)(F)O2` [Example 40, (S)—N-(2,2-difluorobenzo[d][1,3]dioxol-5-yl)-3-(3,5-difluorophenyl)-N-methyl-2-(3-(o-tolylsulfonyl)ureido)propanamide], for which, under setting [1], the EC50 is 100 to 1000 nM.
`CN(C(=O)[C@H](Cc1cc(F)cc(F)c1)NC(=O)NS(=O)(=O)c1ccccc1)c1ccc2c(c1)OC(F)(F)O2` [Example 41, (S)—N-(2,2-difluorobenzo[d][1,3]dioxol-5-yl)-3-(3,5-difluorophenyl)-N-methyl-2-(3-(phenylsulfonyl)ureido)propanamide]: the EC50 under setting [1] fell in the range of 100 to 1000 nM.
For `CN(C(=O)[C@H](Cc1ccccc1)NC(=O)NS(=O)(=O)C1CC1)c1ccc2c(c1)OCO2` [Example 42, (S)—N-(benzo[d][1,3]dioxol-5-yl)-2-(3-(cyclopropylsulfonyl)ureido)-N-methyl-3-phenylpropanamide], the EC50 runs as follows: under setting [1], 100 to 1000 nM; under setting [2], 480 nM.
For the compound `CC(C)S(=O)(=O)NC(=O)N[C@@H](Cc1ccccc1)C(=O)N(C)c1ccc2c(c1)OCO2` [Example 43, (S)—N-(benzo[d][1,3]dioxol-5-yl)-2-(3-(isopropylsulfonyl)ureido)-N-methyl-3-phenylpropanamide], the EC50 under setting [1] was 100 to 1000 nM.
For `CN(C(=O)[C@H](Cc1ccccc1)NC(=O)NS(C)(=O)=O)c1ccc2c(c1)OCO2` [Example 44, (S)—N-(benzo[d][1,3]dioxol-5-yl)-N-methyl-2-(3-(methylsulfonyl)ureido)-3-phenylpropanamide], the EC50 by setting is: under setting [1], 1000 to 10000 nM; under setting [2], 2480 nM.
As to `CC(C)CS(=O)(=O)NC(=O)N[C@@H](Cc1ccccc1)C(=O)N(C)c1ccc2c(c1)OCO2` [Example 45, (S)—N-(benzo[d][1,3]dioxol-5-yl)-2-(3-(isobutylsulfonyl)ureido)-N-methyl-3-phenylpropanamide], under setting [1], the EC50 lay within 100 to 1000 nM.
For the compound `CN(C(=O)[C@H](Cc1ccccc1)NC(=O)NS(=O)(=O)C(C)(C)C)c1ccc2c(c1)OCO2` [Example 46, (S)—N-(benzo[d][1,3]dioxol-5-yl)-2-(3-(tert-butylsulfonyl)ureido)-N-methyl-3-phenylpropanamide], the EC50 under setting [1] is 1000 to 10000 nM.
The same measure, in the same setting: then `CN(C(=O)[C@H](Cc1ccccc1)NC(=O)N(C)S(=O)(=O)c1ccccc1Br)c1ccc2c(c1)OCO2` [Example 47, (S)—N-(benzo[d][1,3]dioxol-5-yl)-2-(3-((2-bromophenyl)sulfonyl)-3-methylureido)-N-methyl-3-phenylpropanamid], with 1000 to 10000 nM.
As to `CN(C(=O)[C@H](Cc1ccccc1)NC(=O)NS(=O)(=O)c1ccccc1-c1cnn(C)c1)c1ccc2c(c1)OCO2` [Example 49, (S)—N-(benzo[d][1,3]dioxol-5-yl)-N-methyl-2-(3-((2-(1-methyl-1H-pyrazol-4-yl)phenyl)sulfonyl)ureido)-3-phenylpropanamide], the EC50 by setting is: under setting [2], 1340 nM; (read-out: Activity, antiviral activity class, recombinant NL4-3 Renilla luciferase virus in MT-2 cells) 1000 to 10000 nM.
For the compound `CN(C(=O)[C@H](Cc1ccccc1)NC(=O)NS(=O)(=O)c1ccccc1-c1ccoc1)c1ccc2c(c1)OCO2` [Example 50, (S)—N-(benzo[d][1,3]dioxol-5-yl)-2-(3-((2-(furan-3-yl)phenyl)sulfonyl)ureido)-N-methyl-3-phenylpropanamide], under setting [1], the EC50 lay within 100 to 1000 nM.
Regarding `Cc1ccccc1S(=O)(=O)NC(=O)N[C@@H](Cc1ccc(Cl)cc1)C(=O)N(C)c1ccc2c(c1)OCO2` [Example 51, (S)—N-(benzo[d][1,3]dioxol-5-yl)-3-(4-chlorophenyl)-N-methyl-2-(3-(o-tolylsulfonyl)ureido)propanamide], the EC50 under setting [1] fell in the range of 100 to 1000 nM and the EC50 under setting [2] was 490 nM.
The like results for `CCOc1ccc(C[C@H](NC(=O)NS(=O)(=O)c2ccccc2C)C(=O)N(C)c2ccc3c(c2)OCO3)cc1` [Example 52, (S)—N-(benzo[d][1,3]dioxol-5-yl)-3-(4-ethoxyphenyl)-N-methyl-2-(3-(o-tolylsulfonyl)ureido)propanamide] were, in that order, 1000 to 10000 nM and 6230 nM.
Consider `Cc1ccccc1C[C@H](NC(=O)NS(=O)(=O)c1ccccc1C)C(=O)N(C)c1ccc2c(c1)OCO2` [Example 53, (S)—N-(benzo[d][1,3]dioxol-5-yl)-N-methyl-3-(o-tolyl)-2-(3-(o-tolylsulfonyl)ureido)propanamide], for which, under setting [1], the EC50 lay in the range of 100 to 1000 nM.
Regarding `Cc1ccccc1S(=O)(=O)NC(=O)N[C@@H](Cc1ccccc1Cl)C(=O)N(C)c1ccc2c(c1)OCO2` [Example 54, (S)—N-(benzo[d][1,3]dioxol-5-yl)-3-(2-chlorophenyl)-N-methyl-2-(3-(o-tolylsulfonyl)ureido)propanamide], the EC50 under setting [1] was in the range of 100 to 1000 nM.
The same measure, in the same setting: the figure for `Cc1ccccc1S(=O)(=O)NC(=O)N[C@@H](Cc1cccc(Cl)c1)C(=O)N(C)c1ccc2c(c1)OCO2` [Example 55, (S)—N-(benzo[d][1,3]dioxol-5-yl)-3-(3-chlorophenyl)-N-methyl-2-(3-(o-tolylsulfonyl)ureido)propanamide] is 100 to 1000 nM.
The same measure, in the same setting: the figure for `COc1ccc(C[C@H](NC(=O)NS(=O)(=O)c2ccccc2C)C(=O)N(C)c2ccc3c(c2)OCO3)cc1` [Example 56, (S)—N-(benzo[d][1,3]dioxol-5-yl)-3-(4-methoxyphenyl)-N-methyl-2-(3-(o-tolylsulfonyl)ureido)propanamide] is 1000 to 10000 nM.
